From US20240410831A1, “Multi-Mode Zinc-Selective Emission-Ratiometric Fluorescent Probes for Biological Application” (Georgia Tech Research Corporation, priority 2023, published 2024)

Assays:
[1] = Fluorometric competition titration with EGTA, Zn(II) complex stability constant; type: binding
Description: FIG. 6A illustrates the fluorometric determination of the Zn(II) complex stability constant of probe 8 via competition titration with EGTA. (A) of FIG. 6A illustrates an exemplary Formula I, Formula II, and/or a derivative thereof (e.g., for example probe 8) (10 μM) that was equilibrated with molar equivalent of Zn(OTf)2 in chelexed PIPES buffer (pH 7.0, 10 mM PIPES, 0.1 M KCl, 25° C.) containing 100 μM 4:1 DMPC:DMPG liposomes and titrated with EGTA to a final concentration of 50 μM. The fluorescence spectra (excitation at 405 nm) were analyzed by non-linear least squares fitting. (B) FIG. 6A illustrates an exemplary change in fluorescence response at 515 nm with the corresponding fit using the equilibrium system model as defined in the table of FIG. 6B.
The binding affinity of Formula I, Formula II, and/or a derivative thereof (e.g., for example probe 8) was analyzed in PIPES buffer containing 100 μM of 4:1 DMPC:DMPG liposomes (pH 7.0, 10 mM PIPES, 0.1 M KCl, 25° C.). […] The binding affinity is over 400-fold weaker than chromis-1 acid, and approximately 10-fold lower than chromis-1 ester. The discrepancy in binding affinities is likely due to a combination of two factors. […]
A solution of Formula I, Formula II, and/or a derivative thereof (e.g., for example probe 8) was diluted from a 3.0 mM DMSO stock solution to a final concentration of 10 μM in Chelex®-treated PIPES buffer (10 mM, 0.1 M KCl, pH 7.0) containing 10 μM of Zn(OTf)2 and 100 μM of liposomes (4:1 mixture of DMPC and DMPG). […] After the addition of each aliquot of EGTA, the solution was allowed to equilibrate for 1 minute, and a fluorescence spectrum (excitation at 405 nm, spectral window 415-665 nm) was acquired. The titration was conducted in triplicate, and the data were analyzed by nonlinear least-squares fitting over the entire spectral range using the SPECFIT software package.

[2] = Metal-ion selectivity measurement (emission-ratiometric response); type: physicochemical; conditions: liposomes, pH 7.0
Description: FIG. 5C illustrates an exemplary table providing exemplary photophysical properties of Formula I, Formula II, and/or a derivative thereof (e.g., for example probe 8) and its Zn(II)-probe complex in PIPES buffer containing 100 μM of 4:1 DMPC:DMPG liposomes (pH 7.0, 10 mM PIPES, 0.1 M KCl, 25° C.). The fluorescence response of the probe 8 (10 PM) was measured in the presence of 100 μM 4:1 DMPC:DMPG liposomes (pH 7.0, 10 mM PIPES, 0.1 M KCl, 25° C.) and an excess of selected biologically relevant divalent metal ions (FIG. 5A). […]
A solution of Formula I, Formula II, and/or a derivative thereof (e.g., for example probe 8) (10 μM) in Chelex®-PIPES buffer (10 mM, 0.1 M KCl, pH 7.0, 25° C.) containing 100 μM of liposomes (4:1 mixture of DMPC and DMPG) prepared in a quartz cuvette with a 1-cm pathlength. A fluorescence spectrum was acquired over the spectral window of 415-700 nm with excitation at 405 nm. Under magnetic stirring, the solution was supplemented with each divalent metal cation (8.0 μM, which corresponds to 80% fractional saturation of the probe, or 2.0 mM Ca(II) and Mg(II) ions), and a fluorescence spectrum was immediately acquired. […] The fluorescence spectrum was acquired after 10 min equilibration to ensure complete formation of the probe 8 Zn(II)-complex. […]

Question: For COc1ccc2c(c1)C(C)(C)c1nc(-c3cccc(CN(Cc4ncccn4)Cc4ncccn4)n3)sc1-2 [probe 8], which “binding affinity weaker than chromis-1 acid” value ([1]; Zn(II) affinity compared with chromis-1 acid) is on record?
Answer: Its value is “over 400 fold”.

Question: What about the “binding affinity lower than chromis-1 ester” value ([1]; Zn(II) affinity compared with chromis-1 ester) of the same compound?
Answer: The value was “approximately 10 fold”.

Question: What about the Kd ([1]; pH 7.0, ionic background 0.1 M KCl, 25° C., liposomes, read-out: apparent dissociation constant Kd for Zn(II)) of the same compound?
Answer: Its Kd is 18.5 nM.

Question: What about the “fluorescence response to Ca(II) and Mg(II)” value ([2]; 2.0 mM of either metal ion) of the same compound?
Answer: Its value is “Neither Ca(II) nor Mg(II) resulted in any significant fluorescence change”.

Question: And the “fluorescence response to divalent transition metals” value ([2]; 0.8 molar equivalents of metal, 10 μM probe)?
Answer: Its value is “quenching of the fluorescence”.
